Test results: paper PMC3665241, “Scaffold-Focused Virtual Screening: Prospective Application to the Discovery of TTK Inhibitors” (Journal of Chemical Information and Modeling, 2013)

How the values were obtained:
[1] = biological target: T1, GST-tagged recombinant human full-length TTK protein kinase (Homo sapiens, UniProt P33981); experiment: TTK mobility shift microfluidics assay, single-concentration percent inhibition screen; format: biochemical; settings: 12.5 nM TTK, 10 μM ATP, mean of duplicate ± SD
T1 construct: GST-tagged recombinant human full-length TTK protein kinase; purchased Invitrogen (Life Technologies Ltd., Paisley, U.K.)
T1 sequence (P33981 1-857): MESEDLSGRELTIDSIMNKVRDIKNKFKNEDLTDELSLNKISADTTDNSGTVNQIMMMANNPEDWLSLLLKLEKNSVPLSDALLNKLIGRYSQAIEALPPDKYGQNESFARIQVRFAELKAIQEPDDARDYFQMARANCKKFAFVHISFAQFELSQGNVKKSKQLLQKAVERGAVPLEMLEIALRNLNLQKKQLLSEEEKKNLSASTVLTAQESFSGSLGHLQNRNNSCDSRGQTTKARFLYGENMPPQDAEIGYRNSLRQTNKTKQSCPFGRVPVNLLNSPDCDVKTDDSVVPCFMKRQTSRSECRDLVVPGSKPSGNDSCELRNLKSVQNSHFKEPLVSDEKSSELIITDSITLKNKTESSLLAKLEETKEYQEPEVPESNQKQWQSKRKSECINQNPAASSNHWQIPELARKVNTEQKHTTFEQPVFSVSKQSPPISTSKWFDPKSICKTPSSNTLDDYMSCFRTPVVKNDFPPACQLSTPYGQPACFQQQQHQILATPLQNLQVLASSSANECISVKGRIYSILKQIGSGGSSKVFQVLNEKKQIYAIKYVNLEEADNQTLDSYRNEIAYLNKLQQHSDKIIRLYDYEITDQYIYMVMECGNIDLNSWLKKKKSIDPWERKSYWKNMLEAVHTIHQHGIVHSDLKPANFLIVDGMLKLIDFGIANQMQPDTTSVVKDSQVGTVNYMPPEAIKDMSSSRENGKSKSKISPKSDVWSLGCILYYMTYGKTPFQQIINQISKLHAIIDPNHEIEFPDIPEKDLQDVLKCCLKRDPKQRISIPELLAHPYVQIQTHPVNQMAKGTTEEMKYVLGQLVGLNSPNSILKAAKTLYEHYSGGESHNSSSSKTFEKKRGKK
Procedure: The TTK kinase activity was measured in a mobility shift microfluidics assay with the Caliper LabChip EZReader II (Caliper Life Sciences, Hopkinton, MA, U.S.A.). For the initial percent inhibition compound screen, all compounds were tested at 40 μM, and fragment-like compounds (MW < 300 Da) were also tested at 400 μM. A 2.14 μM stock of GST-tagged recombinant human full-length TTK protein kinase from Invitrogen (Invitrogen, Life Technologies Ltd., Paisley, U.K.) and custom synthesized peptide from Pepceuticals (Pepceuticals Ltd., Enderby, U.K.) with sequence 5-FAM-[…]-amide were used. […] For every 10 mL of stock buffer, one Roche EDTA free complete mini-protease inhibitor cocktail tablet (Roche, Basel, Switzerland) was added. TTK was used at a final concentration of 12.5 nM. The assay plate was sealed and incubated at room temperature for 60 min. The assay was stopped by addition of stop buffer which contained 100 mM HEPES (pH 7.3), 20 mM EDTA, and 0.05% (v/v) Brij-35. The assay plate was then analyzed using the EZReader II. Z′ for compounds at 40 μM was 0.48, and Z′ for compounds at 400 μM was 0.61.

[2] = biological target: T2, TTK kinase domain (residues 519–808) (Homo sapiens, UniProt P33981); experiment: Soaking of apo TTK kinase domain crystals with inhibitor, X-ray crystallography; format: binding; settings: crystals soaked with 10–50 mM compound for 24 h
T2 construct: TTK kinase domain (residues 519–808); inferred from Ni-NTA purification with imidazole elution; made in house; host or cells: E. coli BL21 AI
T2 sequence (P33981 519-808): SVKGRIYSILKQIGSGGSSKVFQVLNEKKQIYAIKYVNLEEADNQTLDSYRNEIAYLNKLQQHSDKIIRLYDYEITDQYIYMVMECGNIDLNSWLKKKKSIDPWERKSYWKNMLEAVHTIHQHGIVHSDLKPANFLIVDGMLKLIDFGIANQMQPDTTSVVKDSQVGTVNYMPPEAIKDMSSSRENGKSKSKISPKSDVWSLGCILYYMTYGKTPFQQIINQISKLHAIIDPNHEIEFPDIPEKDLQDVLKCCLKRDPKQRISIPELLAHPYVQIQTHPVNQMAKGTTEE
Excerpt: In recognition of the desirability of protein–ligand crystal structures to educate the efficient follow-up of fragment-like hit matter and our wish to determine the mode of binding of hits identified with the scaffold-focused virtual screen, we sought co-crystal structures of confirmed hits with TTK. To this end, apo crystals of TTK kinase domain were soaked in buffer solution containing the respective inhibitor (2–9). X-ray data were collected for all crystals, and the structures were solved using molecular replacement. We successfully obtained co-crystal structures of TTK with fragment-like hit compounds 3, 4, 5, and 7. […] A summary of crystallographic analysis is presented in Table 4, and the binding modes of compounds 3, 4, 5, and 7 are illustrated in Figure 7 with Fo–Fc electron density omit maps surrounding the ligand shown in green wire-mesh contoured at 3σ. In all four structures, the activation loop of TTK is disordered, possibly due to the presence of a PEG molecule bound to Lys553, a residue which would usually coordinate with Glu571 to help stabilize the activation loop (Lys553 is not shown in Figure 7 for clarity).
TTK was purified and crystallized as described previously.[26] Plasmids for expression of TTK were received from Stefan Knapp, Structural Genomics Consortium, Oxford, U.K. TTK kinase domain (residues 519–808) was expressed in E. coli BL21 AI competent cells (Invitrogen, Life Technologies Ltd., Paisley, U.K.). Cells were cultured in LB media containing kanamycin selection antibiotic and induced with 0.5 mM IPTG and 1g/L L-arabinose at an OD280 of 0.7. Cells were then incubated overnight at 18 °C with shaking at 225 rpm. Cells were harvested and resuspended in lysis buffer containing 50 mM HEPES pH 7.5, 500 mM NaCl, 10 mM imidazole, 5% (v/v) glycerol, lysozyme, and 1 Roche EDTA free complete protease inhibitor cocktail tablet (Roche, Basel, Switzerland) per 3 L of buffer. TTK was purified using Ni–NTA nickel affinity resin and washed in buffer containing 30 mM imidazole. TTK was then eluted from the resin with 250 mM imidazole. Eluate was concentrated using a Vivaspin concentrator with a 30 kDa molecular weight cutoff (GE Healthcare, Chalfont St. Giles, U.K.) and further purified on gel filtration column Superdex 200 16/60 (GE Healthcare, Chalfont St. Giles, U.K.) equilibrated in buffer containing 10 mM HEPES pH 7.5, 150 mM NaCl, 5 mM DTT, and 5 mM EDTA. The sample was concentrated to a final concentration of 8.9 mg/mL, snap frozen on dry ice, and stored at −80 °C until required.
Purified TTK was crystallized at 18 °C using the sitting drop vapor diffusion method with drops composed of 2 μL protein (8.9 mg/mL) and 2 μL reservoir solution placed over 200 μL reservoir solution of H2O/PEG300 (30–45% (v/v)) in 48 well plates. […]

[3] = biological target: T1, GST-tagged recombinant human full-length TTK protein kinase; experiment: TTK mobility shift microfluidics assay, IC50 determination (3 nM TTK); format: biochemical

Cc1ccc2[nH]c3c(N4CCCCC4)ncnc3c2c1 [Compound 9]
inhibition at 40 µM ([1]; compound at 40 μM, 1% DMSO): 68 ± 1.41% | inhibition at 400 µM ([1]; compound at 400 μM (fragment-like, MW < 300 Da)): 55.5 ± 2.12% | binding in ATP binding site of soaked TTK crystals (electron density) [2]: not bound | IC50 ([3]; 10% DMSO (asterisk), 3 nM TTK, 10 μM ATP, duplicate on the same plate): 246 µM | LE (ligand efficiency) ([3]; from TTK IC50): 0.25
